In a melting point compilation (Tetko et al.; mined from patent text by program, amines drawn as free bases though some values may be those of a salt) one finds melting point data, which are given here for 88 molecules.

Molecules are shown by their SMILES. Where only a bound is given, the exact number is not on record here.

For orientation: melting point means the temperature of the solid-liquid transition.

With `Cc1ccc(-c2cc(-c3ccc(F)cc3)c(C(=O)NCc3ccc(C(=O)NO)cc3)[nH]2)cc1`, the melting point was in the range of 213 to 215 °C.

`O=C1CNc2ncc(-c3ccc(C(=O)N4CCC[C@H]4CN4CCCC4)cc3)cc2N1Cc1cc(F)ccc1F`: the melting point was 125 °C.

The molecule `CCc1noc(C)c1-c1[nH]c2ccccc2c1CN(C)C` gave a melting point of 88 to 90 °C.

`CCCc1cc(-c2nc(-c3ccc(C)cc3)cs2)ccn1`: the melting point lay within 190 to 193 °C.

`O=C1[C@@H]2C[C@H](Oc3ccc(Br)cc3)CN2C(=O)N1c1cc(Cl)cc(Cl)c1` displayed a melting point of 116 °C.

With `O=S(=O)(Cl)c1ccc2oc(-c3ccncc3)cc2c1`, the melting point stood at 210 °C.

As to `CCCCn1c(=O)n(C)c(=O)c2[nH]ncc21`, the melting point lay in the range of 160 to 162 °C.

`CCOC(=O)C(=NO)C1=Nc2ccc(Cl)cc2C(c2ccccc2Cl)=NC1` yielded a melting point of 219 to 221 °C.

`O=S(=O)(NC(Cc1ccc(O)cc1)c1ccccc1)c1ccc(Cl)cc1` (stereo not drawn) yielded a melting point of 174 to 178 °C.

On to `CCN(CC)C(=O)C=Cc1cc([N+](=O)[O-])ccc1C`, for which the melting point was determined as 61.9 °C.

`N#Cc1ccc(CN2CC=C(/C=C/c3ccc(F)cc3)CC2)cc1` displayed a melting point of 150 to 152 °C.

Molecule `COc1ccc(Br)c2c1CC(=O)CO2` returned a melting point of 97 to 100 °C.

With `CNC(=O)Oc1ccc2[nH]cc(CCCN3CCN(c4ncncc4OC)CC3)c2c1`, the melting point lay within 120 to 122 °C.

Molecule `CSc1ccc(C(=O)c2cc(-c3ccccc3)c(N3CCOCC3)s2)cc1` gave a melting point of 165 °C.

In turn, `CC(=O)Nc1ccc(OCC(O)CNC(C)(C)C)c(C2=NNC(=O)CC2)c1` (stereo not drawn) had a melting point of 102 to 109 °C.

For `O=CN1CCC(O)(c2ccccc2Cc2ccccc2)CC1`, the melting point lay within 171 to 174 °C.

In turn, `CNc1nc(-c2cccc(NC(=O)c3ccc(Cl)c(Cl)c3)c2)c2cc(OC)c(OC)cc2n1` registered a melting point of 134 to 136 °C.

For the molecule `CC1=NC2CN=C(c3ccccc3F)c3cc(Cl)ccc3C2C(=O)N1` (stereo not drawn), the melting point lay in the range of 150 to 165 °C.

In the case of `O=S(=O)(Nc1cc(Cl)cc(Cl)c1)c1cc(S(=O)(=O)Nc2cc(Cl)cc(Cl)c2)c2cc(O)ccc2c1`, the melting point was 122 to 124 °C.

`CCN(CC)C(=O)Nc1cccc(Cl)c1` had a melting point of 81 to 82 °C.

`COc1ccc(-c2cnc3[nH]cc(C(N)=O)c3n2)cc1OC` returned a melting point of 290 to 292 °C.

`O[C@@H](CNCCOc1ccc2oc(-c3ccon3)cc2c1)c1cccc(C(F)(F)F)c1` gave a melting point of 113 to 114 °C.

In turn, `CCCCCCCCCCCc1ccc(F)c(-c2nc(-c3ccccc3Cl)nn2C)c1` came in with a melting point of 35 to 37 °C.

Regarding `CCOC(=O)COc1cccc2c1CCC2=O`, the melting point lay within 91 to 93 °C.

On to `COc1cc(-n2nc(C)[nH]c2=O)c(F)cc1Cl`, for which the melting point lay within 193 to 195 °C.

`Cc1oc(-c2ccccc2)nc1CCOc1ccc(C=CC#N)cc1`: the melting point fell in the range of 112 to 113 °C.

The molecule `O=c1cc(C(F)(F)F)cnn1-c1cc(Oc2ncccn2)c(Cl)cc1F` registered a melting point of 156 to 160 °C.

Molecule `COc1ccc(-c2nc(C(OC)(C(F)(F)F)C(F)(F)F)[nH]c2-c2ccc(OC)cc2)cc1` showed a melting point of 129 to 131 °C.

The molecule `Cc1cc2nc(N3CCC(=S)CC3)nc(N)c2cc1C` yielded a melting point of 187 to 188 °C.

The molecule `C=CCN1C(=O)c2cscc2Nc2ccccc21` showed a melting point of 105 to 106 °C.

`CCc1cccc(C)c1CNc1cc(C(=O)O)cn2c(C)nnc12` returned a melting point of 328 °C.

In turn, `COc1ccc(-n2nc(N3CCN(C(N)=O)CC3)c3ccccc32)cc1` yielded a melting point of 155 to 157 °C.

`CN(c1cccc2cc(C3=NCC(CC(=O)N4CCS(=O)CC4)S3)[nH]c12)S(=O)(=O)c1cccs1` (stereo not drawn): the melting point was determined as 149 °C.

`Nc1ccc(Nc2ccc([N+](=O)[O-])cc2S(=O)(=O)CCO)cc1` returned a melting point of 147 to 149 °C.

`CC(=O)N1c2ccc(F)cc2CC1C(N)=O` (stereo not drawn) came in with a melting point of 232 to 235 °C.

Take `CCCCn1c(=O)c(NC(=O)Nc2cc(CO)ccc2C(C)(C)C)c(-c2cccc(OC)c2)c2cccnc21`: the melting point lay within 102 to 105 °C.

As to `O=C(O)CCCCCN(C(=O)c1ccc(Cl)cc1Cl)c1ccccc1-c1ccccc1`, the melting point was 112 to 113 °C.

For `COc1c(Br)cc(Br)c2ccc(C=Cc3ccccc3)nc12`, the melting point lay in the range of 150 to 152 °C.

`CCc1nc2sc(S(N)(=O)=O)cc2c(=O)n1-c1ccccc1Cl` registered a melting point of 253 °C.

Consider `Cc1cc(C#N)cc(CNc2c(NC(C)(C)C)c(=O)c2=O)c1`, for which the melting point was 253 to 255 °C.

Molecule `Cc1ccsc1C(Cc1ccccc1N)N(C)C(=O)C(C)C` (stereo not drawn) had a melting point of 137 to 141 °C.

In turn, `COc1cc([N+](=O)[O-])c2c3c(c4ccccc4nc13)C=CN2` had a melting point of 220 to 223 °C.

The molecule `CCN1CCCC1CNC(=O)c1c(O)c(OC)c2occc2c1OC` (stereo not drawn) came in with a melting point of 86 °C.

In turn, `Cc1cc(Cl)cc2c(-c3ccc(Cl)cc3)onc12` displayed a melting point of 151 to 152 °C.

Take `NC(=O)CCC1CCC(=O)N1` (stereo not drawn): the melting point was found to be 178 °C.

Consider `CCc1c(C(C)C)cc(C(C)C)c(CO)c1-c1ccc(F)cc1`, for which the melting point is 106 to 108 °C.

The molecule `COC(=O)c1c(C(C)(C)O)nc(C(C)OC)n1Cc1ccc(-c2ccccc2-c2nnnn2C(c2ccccc2)(c2ccccc2)c2ccccc2)cc1` (stereo not drawn) yielded a melting point of 131 to 133 °C.

Regarding `Cc1cc(Oc2ccc(C(=O)C=CC(=O)O)cc2)ccc1Cl`, the melting point was in the range of 135 to 136 °C.

In the case of `CCCCn1c(=O)cc(-c2ccc(NCCO)cc2)[nH]c1=O`, the melting point is 207 to 208 °C.

As to `Cc1ccc(-n2nc(Cl)cc2-c2ccc(S(C)(=O)=O)cc2)cc1F`, the melting point lay in the range of 160 to 162 °C.

In turn, `CCCc1c(OCCCOc2cccc3c2CCCC3)ccc2c1OC(CCCO)(CCCO)CC2O` (stereo not drawn) showed a melting point of 123 to 124 °C.

Molecule `CCOC(=O)C1(C(=O)OCC)C(CC)CC(O)N1C(C)=O` (stereo not drawn) came in with a melting point of 106 to 109 °C.

For the molecule `Cc1cccc(NC(=O)NCC(=O)N2C(Cc3ccccc3)SC[C@H]2C(=O)OC(C)(C)C)c1` (stereo partly drawn), the melting point was determined as 104 °C.

The molecule `CC1CCC(N2c3ccccc3Oc3ccccc32)=N1` (stereo not drawn) registered a melting point of 135 to 137 °C.

For `CC(C)(C)C(O)c1ccc(Oc2ccccc2)cc1` (stereo not drawn), the melting point lay in the range of 79 to 80 °C.

In turn, `COC1(c2ccccc2)CCc2c(C(=O)O)cc3c(nc(C)n3C)c2O1` (stereo not drawn) came in with a melting point of 288 to 289 °C.

`CCOC(=O)CN1CCC(CNc2ccc(Cl)cc2C(=O)Nc2ccc(Cl)cn2)CC1` showed a melting point of 61 to 63 °C.

Take `CC(=O)SCCC(=O)N(C)C`: the melting point was 118 to 121 °C.

As to `COc1ccc2c(c1)NC(=O)C(CCCBr)O2` (stereo not drawn), the melting point was 102 to 103 °C.

Regarding `CCCNC(=O)c1ccc(CCCc2cc(S(C)(=O)=O)ccc2OCc2ccccc2)cc1`, the melting point worked out at 121 °C.

As for `COc1c(Cc2c[nH]c3cccc(C(=O)O)c23)[nH]c(=O)c(CC(C)C)[n+]1[O-]`, the melting point was 160 to 164 °C.

`CN1C(=O)N=C(NCc2ccccc2)C1=O` showed a melting point of 152 to 154 °C.

Molecule `Cc1nc(N2CCN(Cc3csc4ccc(Cl)cc34)C2=O)sc1C(=O)NCc1cccnc1` returned a melting point of 185 to 187 °C.

In turn, `OCCOc1ccc(C(=S)c2ccc(-c3ccccc3)cc2)c(O)c1` came in with a melting point of 77 to 79 °C.

Regarding `CCCCC(OCC(=O)c1ccccc1)C(F)CC` (stereo not drawn), the melting point lay in the range of 39.6 to 40.1 °C.

The molecule `COc1ccc(C(O)CN(Cc2ccccc2)Cc2ccccc2)cc1C(N)=O` (stereo not drawn) displayed a melting point of 120 to 123 °C.

`Cn1ccc2ncnc(Oc3ccc(NC(=O)Nc4cc(C(F)(F)F)ccc4F)c(Cl)c3)c21` registered a melting point of 193 to 197 °C.

`CC1(C)Oc2ccsc2C(N)C1O` (stereo not drawn) gave a melting point of 111 to 116 °C.

`O=C(CCCO)c1ccc(CCNS(=O)(=O)c2ccccc2)cc1` had a melting point of 89 to 90 °C.

Turning to `CN1CCC(C(=O)Nc2ccc(CN(C)C3CCOCC3)cc2)=Cc2cc(-c3ccc(C(F)(F)F)cc3)ccc21`, the melting point was 188 °C.

As to `Cc1nccn1-c1nc(Cl)c(-c2ccccc2)c2ccccc12`, the melting point was 167 to 168 °C.

For the molecule `O=C(O)CSCCCCCNS(=O)(=O)c1ccc(Cl)cc1`, the melting point fell in the range of 93 to 94 °C.

`O=C(O[C@@H]1CC[C@H]1Cl)c1ccccc1` (relative stereo) registered a melting point of 20 °C.

`CCOC(=O)CCC(C#N)(c1ccccc1)C(C)C` (stereo not drawn): the melting point lay in the range of 82 to 84 °C.

`CNC(=O)c1ccccc1Nc1nc(Nc2cc3c(cc2OC)CC(=O)NCC3)ncc1Cl` displayed a melting point above 250 °C.

In the case of `CCNC(=O)NS(=O)(=O)c1cc2c(cc1OC)OCC(NC(=O)c1cc(Cl)ccc1OC)C2` (stereo not drawn), the melting point fell in the range of 233 to 234 °C.

On to `CS(=O)c1ccc(CSc2nnc(-c3ccc4[nH]ncc4c3)o2)cc1C(F)(F)F` (stereo not drawn), for which the melting point is 170 to 171 °C.

For the molecule `NCc1cccc(C2CCN(c3cc4c(cc3F)c(=O)c(C(=O)O)cn4C3CC3)C2)c1` (stereo not drawn), the melting point was in the range of 250 to 253 °C.

For `CCc1cc2c(ccc(=O)n2Cc2ccc(-c3ccccc3S(N)(=O)=O)cc2)c(CC)n1`, the melting point was in the range of 199 to 200 °C.

`CN(c1cccc2cc(-c3nccs3)[nH]c12)S(=O)(=O)N1CCCC1` yielded a melting point of 108 °C.

As to `CC(C)CCN1C(=O)C(NC(=O)Nc2cccc(-c3nnn[nH]3)c2)C(=O)N(c2ccccc2)c2ccccc21` (stereo not drawn), the melting point was in the range of 220 to 222 °C.

In turn, `CC(=CCc1c(C)nc(N)nc1N)c1cc(Cl)ccc1Cl` yielded a melting point of 172 to 174 °C.

The molecule `CCCCOc1c(CN2C(=O)c3ccccc3C2=O)n(CC(C)(C)C)c(=O)c2cc(F)ccc12` displayed a melting point of 155 to 156 °C.

Molecule `CC(=O)OC1CSC(Oc2ccnc(-c3cccnc3)c2)C(OC(C)=O)C1OC(C)=O` (stereo not drawn) displayed a melting point of 185 °C.

Consider `COc1ccc(N=C2SC(=CC(=O)O)C(=O)N2c2ccc(OC)cc2)cc1`, for which the melting point is 184 to 187 °C.

With `Cc1ccc(C#CC#Cc2ccc(C)cc2)cc1`, the melting point is 182 to 183 °C.

The molecule `COc1c(F)cc2c(=O)c(C(=O)O)cn3c2c1CCC3C` (stereo not drawn) gave a melting point of 234 to 236 °C.

The molecule `CC(=Cc1ccc2ccccc2n1)C(=O)NO` yielded a melting point of 182 to 183 °C.
